# Data from patent US9096565B2, “Inhibitors of histone deacetylase” (MethylGene Inc., priority 2007, dated 2015).
# Biological target: one or more of HDAC-4, HDAC-5, HDAC-6, HDAC-7, HDAC-8, HDAC-9, HDAC-10 and HDAC-11
# Assay: Inhibition of histone deacetylase enzymatic activity (summary statement over isoforms)
# Assay type: biochemical
# Details: Table 3, selected examples; HDAC isoform not given
# Outline: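 HDAC enzyme mix with compound was preincubated 5 min at room temperature. Reaction was started at 37 °C with Boc-Lys(trifluoroacetyl)-AMC substrate and run 20-30 min. It was stopped with trypsin (1 mg/mL) plus a known HDAC inhibitor to release the fluorogenic AMC.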
row,SMILES,IC50 [nM]
1,"Cc1cc(C(=O)Nc2ccc(C(C(=O)NO)c3ccccc3)cc2)c(C)o1 (stereo not shown) [Compound 2-63, N-(4-(2-(hydroxyamino)-2-oxo-1-phenylethyl)phenyl)-2,5-dimethylfuran-3-carboxamide]",< 1000
2,"Cc1ccsc1C(=O)Nc1ccc(C(C(=O)NO)c2ccccc2)cc1 (stereo not shown) [Compound 2-65, N-(4-(2-(hydroxyamino)-2-oxo-1-phenylethyl)phenyl)-3-methylthiophene-2-carboxamide]",< 1000
3,"O=C(COc1ccccc1)Nc1ccc(C(C(=O)NO)c2ccccc2)cc1 (stereo not shown) [Compound 2-67, N-hydroxy-2-(4-(2-phenoxyacetamido)phenyl)-2-phenylacetamide]",< 1000
4,"O=C(CCC1CCCCC1)Nc1ccc(C(C(=O)NO)c2ccccc2)cc1 (stereo not shown) [Compound 2-70, 3-cyclohexyl-N-(4-(2-(hydroxyamino)-2-oxo-1-phenylethyl)phenyl)propanamide]",< 1000
5,"O=C(CCC1CCCCC1)Nc1cccc(C(C(=O)NO)c2ccccc2)c1 (stereo not shown) [Compound 2-71, 3-cyclohexyl-N-(3-(2-(hydroxyamino)-2-oxo-1-phenylethyl)phenyl)propanamide]",< 1000
6,"CC(C)CCNc1ccc(C(C(=O)NO)c2ccccc2)cc1 (stereo not shown) [Compound 2-77, N-hydroxy-2-(4-(isopentylamino)phenyl)-2-phenylacetamide]",< 1000
7,"O=C(NO)C(c1ccccc1)c1ccc(NCc2ccccc2)cc1 (stereo not shown) [Compound 2-78, 2-(4-(benzylamino)phenyl)-N-hydroxy-2-phenylacetamide]",< 1000
8,"O=C(NO)C(c1ccccc1)c1ccc(NCc2ccncc2)cc1 (stereo not shown) [Compound 2-80, N-hydroxy-2-phenyl-2-(4-(pyridin-4-ylmethylamino)phenyl)acetamide]",< 1000
9,"O=C(NO)C(c1ccccc1)c1ccc(NCC2CCCCC2)cc1 (stereo not shown) [Compound 2-82, 2-(4-(cyclohexylmethylamino)phenyl)-N-hydroxy-2-phenylacetamide]",< 1000
10,"O=C(NO)C(c1ccccc1)c1cccc(NCC2CCCCC2)c1 (stereo not shown) [Compound 2-83, 2-(3-(cyclohexylmethylamino)phenyl)-N-hydroxy-2-phenylacetamide]",1000 to 15000
11,"COc1cccc(CNc2ccc(C(C(=O)NO)c3ccccc3)cc2)c1 (stereo not shown) [Compound 2-84, N-hydroxy-2-(4-(3-methoxybenzylamino)phenyl)-2-phenylacetamide]",< 1000
12,"COc1cccc(CNc2cccc(C(C(=O)NO)c3ccccc3)c2)c1 (stereo not shown) [Compound 2-85, N-hydroxy-2-(3-(3-methoxybenzylamino)phenyl)-2-phenylacetamide]",< 1000
13,"CCCS(=O)(=O)Nc1ccc(C(C(=O)NO)c2ccccc2)cc1 (stereo not shown) [Compound 2-86, N-hydroxy-2-phenyl-2-(4-(propylsulfonamido)phenyl)acetamide]",< 1000
14,"CCCS(=O)(=O)Nc1cccc(C(C(=O)NO)c2ccccc2)c1 (stereo not shown) [Compound 2-87, N-hydroxy-2-phenyl-2-(3-(propylsulfonamido)phenyl)acetamide]",1000 to 15000
15,"O=C(NO)C(c1ccccc1)c1ccc(NS(=O)(=O)c2ccccc2)cc1 (stereo not shown) [Compound 2-88, N-hydroxy-2-phenyl-2-(4-(phenylsulfonamido)phenyl)acetamide]",< 1000
16,"O=C(NO)C(c1ccccc1)c1cccc(NS(=O)(=O)c2ccccc2)c1 (stereo not shown) [Compound 2-89, N-hydroxy-2-phenyl-2-(3-(phenylsulfonamido)phenyl)acetamide]",1000 to 15000
17,"O=C(NO)C(c1ccccc1)c1ccc(NS(=O)(=O)c2cccs2)cc1 (stereo not shown) [Compound 2-90, N-hydroxy-2-phenyl-2-(4-(thiophene-2-sulfonamido)phenyl)acetamide]",< 1000
18,"O=C(NO)C(c1ccccc1)c1ccc(NS(=O)(=O)c2ccc(Cl)cc2)cc1 (stereo not shown) [Compound 2-92, 2-(4-(4-chlorophenylsulfonamido)phenyl)-N-hydroxy-2-phenylacetamide]",< 1000
19,"O=C(NO)C(c1ccccc1)c1cccc(C#Cc2ccccc2)c1 (stereo not shown) [Compound 2-94, N-hydroxy-2-phenyl-2-(3-(phenylethynyl)phenyl)acetamide]",1000 to 15000

# More lines, now with the values ahead:
row,IC50 [nM],SMILES
1,< 1000,"O=C(Nc1ccc(C(C(=O)NO)c2ccccc2)cc1)c1ccc(F)cc1 (stereo not shown) [Compound 2-61, 4-fluoro-N-(4-(2-(hydroxyamino)-2-oxo-1-phenylethyl)phenyl)benzamide]"
2,< 1000,"O=C(Nc1cccc(C(C(=O)NO)c2ccccc2)c1)c1ccc(F)cc1 (stereo not shown) [Compound 2-62, 4-fluoro-N-(3-(2-(hydroxyamino)-2-oxo-1-phenylethyl)phenyl)benzamide]"
3,1000 to 15000,"Cc1cc(C(=O)Nc2cccc(C(C(=O)NO)c3ccccc3)c2)c(C)o1 (stereo not shown) [Compound 2-64, N-(3-(2-(hydroxyamino)-2-oxo-1-phenylethyl)phenyl)-2,5-dimethylfuran-3-carboxamide]"
4,1000 to 15000,"Cc1ccsc1C(=O)Nc1cccc(C(C(=O)NO)c2ccccc2)c1 (stereo not shown) [Compound 2-66, N-(3-(2-(hydroxyamino)-2-oxo-1-phenylethyl)phenyl)-3-methylthiophene-2-carboxamide]"
5,< 1000,"O=C(COc1ccccc1)Nc1cccc(C(C(=O)NO)c2ccccc2)c1 (stereo not shown) [Compound 2-68, N-hydroxy-2-(3-(2-phenoxyacetamido)phenyl)-2-phenylacetamide]"
6,< 1000,"COc1ccc(C(=O)Nc2cccc(C(C(=O)NO)c3ccccc3)c2)cc1 (stereo not shown) [Compound 2-69, N-(3-(2-(hydroxyamino)-2-oxo-1-phenylethyl)phenyl)-4-methoxybenzamide]"
7,< 1000,"O=C(Nc1ccc(C(C(=O)NO)c2ccccc2)cc1)c1cccc(Cl)c1 (stereo not shown) [Compound 2-72, 3-chloro-N-(4-(2-(hydroxyamino)-2-oxo-1-phenylethyl)phenyl)benzamide]"
8,1000 to 15000,"O=C(Nc1cccc(C(C(=O)NO)c2ccccc2)c1)c1cccc(Cl)c1 (stereo not shown) [Compound 2-73, 3-chloro-N-(3-(2-(hydroxyamino)-2-oxo-1-phenylethyl)phenyl)benzamide]"
9,< 1000,"O=C(Nc1ccc(C(C(=O)NO)c2ccccc2)cc1)c1ccnc(Cl)c1 (stereo not shown) [Compound 2-74, 2-chloro-N-(4-(2-(hydroxyamino)-2-oxo-1-phenylethyl)phenyl)isonicotinamide]"
10,< 1000,"O=C(Nc1ccc(C(C(=O)NO)c2ccccc2)cc1)c1ccc2c(c1)OCO2 (stereo not shown) [Compound 2-75, N-(4-(2-(hydroxyamino)-2-oxo-1-phenylethyl)phenyl)benzo[d][1,3]dioxole-5-carboxamide]"
11,< 1000,"O=C(Nc1cccc(C(C(=O)NO)c2ccccc2)c1)c1ccc2c(c1)OCO2 (stereo not shown) [Compound 2-76, N-(3-(2-(hydroxyamino)-2-oxo-1-phenylethyl)phenyl)benzo[d][1,3]dioxole-5-carboxamide]"
12,1000 to 15000,"O=C(NO)C(c1ccccc1)c1cccc(NCc2ccccc2)c1 (stereo not shown) [Compound 2-79, 2-(3-(benzylamino)phenyl)-N-hydroxy-2-phenylacetamide]"
13,< 1000,"O=C(NO)C(c1ccccc1)c1cccc(NCc2ccncc2)c1 (stereo not shown) [Compound 2-81, N-hydroxy-2-phenyl-2-(3-(pyridin-4-ylmethylamino)phenyl)acetamide]"
14,1000 to 15000,"COc1ccc(S(=O)(=O)Nc2cccc(C(C(=O)NO)c3ccccc3)c2)cc1 (stereo not shown) [Compound 2-91, N-hydroxy-2-(3-(4-methoxyphenylsulfonamido)phenyl)-2-phenylacetamide]"
15,1000 to 15000,"O=C(NO)C(c1ccccc1)c1cccc(NS(=O)(=O)c2ccc(Cl)cc2)c1 (stereo not shown) [Compound 2-93, 2-(3-(4-chlorophenylsulfonamido)phenyl)-N-hydroxy-2-phenylacetamide]"
